Reference: article PMC7072648, “N-(2-Hydroxyphenyl)-1-[3-(2-oxo-2,3-dihydro-1H- benzimidazol-1-yl)propyl]piperidine-4-Carboxamide (D2AAK4), a Multi-Target Ligand of Aminergic GPCRs, as a Potential Antipsychotic” (Biomolecules, 2020)
Values joined by “and” are separate entries in the source; they are usually repeats but may differ in a detail not shown here. Equal values may be shown once.

Columns and labels:
mice [1] = test: Elevated plus maze (EPM) test; assay type: in vivo; conditions: 100 mg/kg i.p., 30 and 60 min after administration
Procedure: The EPM apparatus was used as described previously. The EPM procedure was described in our previous papers. The percentage (%) of time spent in the open arms and % of entries into the open arms were calculated. Moreover, the number of entries into the closed arms was recorded as the motor activity indicator of tested mice.
To determine D2AAK4 acute effect on anxiety-like behavior, the studied compound (100 mg/kg; i.p.) (n = 8) or vehicle (i.p.) (n = 8) was injected 30 and 60 min before the EPM test.

human D3 receptor = human D3 receptor (Homo sapiens, UniProt P35462); test: Radioligand binding assay at human D3 receptor; conditions: mean ± SEM, two independent experiments in duplicate; read-out: pKi hD3 (converted)
Sequence of human D3 receptor (P35462 whole entry): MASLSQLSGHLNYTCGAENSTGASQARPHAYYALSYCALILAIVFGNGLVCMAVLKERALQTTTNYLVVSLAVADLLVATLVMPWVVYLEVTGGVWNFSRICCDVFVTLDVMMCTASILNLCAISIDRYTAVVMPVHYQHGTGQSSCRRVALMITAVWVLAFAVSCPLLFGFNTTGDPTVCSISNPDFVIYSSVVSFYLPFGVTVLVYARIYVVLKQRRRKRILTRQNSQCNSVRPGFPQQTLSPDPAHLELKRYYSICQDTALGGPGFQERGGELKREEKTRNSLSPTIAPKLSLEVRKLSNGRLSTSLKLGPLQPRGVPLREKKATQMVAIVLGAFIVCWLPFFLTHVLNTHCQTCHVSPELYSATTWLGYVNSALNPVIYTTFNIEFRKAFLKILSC
Procedure: (§1) Radioligand binding assays were performed on cell membrane preparations from cell lines stably expressing the human cloned receptors. […] Experimental conditions for binding assays at D1, D2, D3, 5-HT1A and 5-HT2A receptors have been previously reported. 0.7 nM [^3H]-SCH23390, 2 nM [^3H]-SB269970 (5-HT7), 2 nM [^3H]-Pyrilamine (H1) and 2 nM [^3H]-Pirenzepine (M1) were employed as radioligands. […] Affinity (equilibrium dissociation constant (Ki) and pKi (−logKi)) values were calculated as previously reported. Affinity values of reference compounds that were assayed in parallel to D2AAK4 as internal controls in the binding assays are given in Supplementary Figure S1 (legend).

human 5-HT1A receptor = target: T1, human 5-HT1A receptor (Homo sapiens, UniProt P08908); test: Radioligand binding assay at human 5-HT1A receptor; conditions: mean ± SEM, read-out: % inh. at 10 μM (5-HT1A)
T1 construct: expressed in transfected cells
T1 sequence (P08908 1-422): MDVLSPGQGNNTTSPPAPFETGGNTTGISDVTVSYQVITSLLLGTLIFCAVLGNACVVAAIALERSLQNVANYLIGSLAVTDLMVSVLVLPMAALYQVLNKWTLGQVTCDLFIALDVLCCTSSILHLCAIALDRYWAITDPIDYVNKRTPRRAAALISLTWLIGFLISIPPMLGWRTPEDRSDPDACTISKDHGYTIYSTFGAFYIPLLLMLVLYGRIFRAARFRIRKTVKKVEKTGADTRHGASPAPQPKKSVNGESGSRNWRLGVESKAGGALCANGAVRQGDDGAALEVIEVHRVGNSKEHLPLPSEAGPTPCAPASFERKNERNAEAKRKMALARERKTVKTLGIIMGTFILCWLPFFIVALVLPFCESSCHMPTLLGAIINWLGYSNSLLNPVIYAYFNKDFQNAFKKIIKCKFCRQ
Procedure: as §1

mice [2] = test: Motor coordination, rotarod and chimney tests; assay type: in vivo; conditions: 100 mg/kg i.p., 60 min after injection
Procedure: Motor coordination has been assessed in mice using the rotarod test and the chimney test using the same procedure as described in our earlier work. […] D2AAK1 was previously studied using the same dose so we decided to select the dose of 100 mg/kg.

human 5-HT2A receptor [3] = target: T2, human 5-HT2A receptor (Homo sapiens, UniProt P28223); test: Functional assay of inositol phosphate (IP) production at 5-HT2A receptors (CHO-K1 cells); assay type: cell-based
T2 construct: expressed in transfected cells
T2 sequence (P28223 whole entry): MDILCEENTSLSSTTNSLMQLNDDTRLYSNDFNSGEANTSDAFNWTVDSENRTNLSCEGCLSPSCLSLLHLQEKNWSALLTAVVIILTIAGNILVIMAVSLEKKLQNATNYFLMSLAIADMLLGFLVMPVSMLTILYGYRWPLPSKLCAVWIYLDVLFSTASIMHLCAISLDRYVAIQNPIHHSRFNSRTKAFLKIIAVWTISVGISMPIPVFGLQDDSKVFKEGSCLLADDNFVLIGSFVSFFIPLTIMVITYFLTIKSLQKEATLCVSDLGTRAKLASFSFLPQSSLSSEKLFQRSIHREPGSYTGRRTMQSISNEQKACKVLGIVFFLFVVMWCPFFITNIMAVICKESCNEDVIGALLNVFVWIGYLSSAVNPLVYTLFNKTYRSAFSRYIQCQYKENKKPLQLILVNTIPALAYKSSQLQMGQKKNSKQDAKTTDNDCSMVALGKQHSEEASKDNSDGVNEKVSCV

human 5-HT7(a) receptor = target: T3, human 5-HT7(a) receptor (Homo sapiens, UniProt P34969); test: Radioligand binding assay at human 5-HT7 receptor; conditions: mean ± SEM; full displacement not achieved at maximum concentration, pKi could be not accurately estimated; read-out: pKi h5-HT7 (converted)
T3 construct: expressed in transfected cells
T3 sequence (P34969 1-445 isoform P34969-2): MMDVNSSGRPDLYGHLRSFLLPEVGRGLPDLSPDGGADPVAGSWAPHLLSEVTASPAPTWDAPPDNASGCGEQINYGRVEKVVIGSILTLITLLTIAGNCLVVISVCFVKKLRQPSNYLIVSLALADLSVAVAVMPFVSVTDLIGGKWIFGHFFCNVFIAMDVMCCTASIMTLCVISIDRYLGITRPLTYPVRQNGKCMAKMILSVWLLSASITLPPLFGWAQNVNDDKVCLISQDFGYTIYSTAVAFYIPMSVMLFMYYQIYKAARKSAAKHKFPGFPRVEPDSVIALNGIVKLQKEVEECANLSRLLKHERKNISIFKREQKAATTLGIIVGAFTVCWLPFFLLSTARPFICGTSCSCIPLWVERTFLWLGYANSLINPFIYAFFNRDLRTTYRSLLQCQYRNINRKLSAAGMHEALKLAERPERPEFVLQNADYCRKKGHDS
Procedure: as §1

mice [4] = test: Passive avoidance (PA) task, memory consolidation; assay type: in vivo; conditions: 100 mg/kg i.p. immediately after pretest, retest 24 h later; p < 0.0001 vs vehicle
Procedure: The PA apparatus was described previously. The PA procedure was also previously described.
Mice received D2AAK4 immediately after being pretested on Day 1, and then they were retested (without injections) 24 h later. The changes in PA performance were calculated as the difference between retention and training latencies (i.e., latency index (IL)). More specifically, IL was calculated for each animal and presented as the ratio (as described in [12, 29]).

mice [5] = test: Amphetamine-induced hyperactivity; conditions: 100 mg/kg i.p. coadministered with amphetamine 5 mg/kg s.c.; p < 0.001 vs amphetamine-treated group
human D2S receptor [6] = target: T4, human D2S receptor (Homo sapiens, UniProt P14416); test: Radioligand binding assay at human D2 receptor; conditions: mean ± SEM, two independent experiments in duplicate; read-out: pKi hD2 (converted)
T4 construct: expressed in transfected cells
T4 sequence (P14416 1-414 isoform P14416-2): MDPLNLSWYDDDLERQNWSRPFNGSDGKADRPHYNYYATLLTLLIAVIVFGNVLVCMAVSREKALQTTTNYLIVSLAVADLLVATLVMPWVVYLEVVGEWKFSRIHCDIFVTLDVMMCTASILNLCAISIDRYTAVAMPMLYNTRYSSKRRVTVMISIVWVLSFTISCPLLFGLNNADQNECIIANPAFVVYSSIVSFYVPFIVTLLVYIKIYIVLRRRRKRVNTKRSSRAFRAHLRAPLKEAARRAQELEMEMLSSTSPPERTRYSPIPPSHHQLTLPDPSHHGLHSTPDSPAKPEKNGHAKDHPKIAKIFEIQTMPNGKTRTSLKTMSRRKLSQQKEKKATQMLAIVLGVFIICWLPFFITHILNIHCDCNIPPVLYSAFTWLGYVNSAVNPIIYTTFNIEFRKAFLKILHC
Procedure: Radioligand binding assays were performed on cell membrane preparations from cell lines stably expressing the human cloned receptors. Chinese hamster ovary K1 (CHO-K1) cell lines stably expressing human D2S, 5-HT2A or H1 receptors and human embryonic kidney 293 (HEK293) cell lines stably expressing human 5-HT1A or 5-HT7(a) receptors were in-house available, whereas CHO-K1 cell lines stably expressing human D1 or D3 receptors (Perkin Elmer, Waltham, MA, USA) and Chem-1 cell line stably expressing human M1 receptor (Millipore, Merck KGaA, Darmstadt, Germany) were commercially available. Experimental conditions for binding assays at D1, D2, D3, 5-HT1A and 5-HT2A receptors have been previously reported. 0.7 nM [^3H]-SCH23390, 2 nM [^3H]-SB269970 (5-HT7), 2 nM [^3H]-Pyrilamine (H1) and 2 nM [^3H]-Pirenzepine (M1) were employed as radioligands. […] Affinity (equilibrium dissociation constant (Ki) and pKi (−logKi)) values were calculated as previously reported. Affinity values of reference compounds that were assayed in parallel to D2AAK4 as internal controls in the binding assays are given in Supplementary Figure S1 (legend).

human D1 receptor = human D1 receptor (Homo sapiens, UniProt P21728); test: Radioligand binding assay at human D1 receptor; conditions: mean ± SEM, two independent experiments in duplicate; read-out: pKi hD1 (converted)
Sequence of human D1 receptor (P21728 whole entry): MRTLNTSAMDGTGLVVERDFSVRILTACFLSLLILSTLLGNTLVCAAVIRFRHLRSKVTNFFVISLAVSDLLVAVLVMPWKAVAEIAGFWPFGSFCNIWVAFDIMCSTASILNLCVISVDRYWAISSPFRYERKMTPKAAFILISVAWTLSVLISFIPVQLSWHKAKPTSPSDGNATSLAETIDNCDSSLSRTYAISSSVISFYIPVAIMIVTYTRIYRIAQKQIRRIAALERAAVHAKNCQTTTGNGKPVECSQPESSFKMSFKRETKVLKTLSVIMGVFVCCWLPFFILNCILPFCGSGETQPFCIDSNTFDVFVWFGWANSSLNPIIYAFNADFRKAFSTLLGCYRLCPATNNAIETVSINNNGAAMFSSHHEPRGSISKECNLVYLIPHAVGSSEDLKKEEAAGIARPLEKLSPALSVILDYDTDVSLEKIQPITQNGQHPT
Procedure: as §1

human D2S receptor [7] = target: T4, human D2S receptor; test: Functional assay of cAMP signaling at D2 receptors (CHO-K1 cells); assay type: cell-based
Procedure: Compound was initially assessed at 10 µM concentration either as agonist or as antagonist of 10 µM dopamine response. Dopamine (10 nM–1 mM) was used as reference agonist in these assays.

human D2S receptor [8] = target: T4, human D2S receptor; conditions: 10 µM compound versus 10 µM dopamine, cAMP assay; cited from earlier work
human M1 receptor = target: T5, human M1 receptor (Homo sapiens, UniProt P11229); test: Radioligand binding assay at human M1 receptor; conditions: mean ± SEM; full displacement not achieved at maximum concentration, pKi could be not accurately estimated; read-out: pKi hM1 (converted)
T5 sequence (P11229 1-460): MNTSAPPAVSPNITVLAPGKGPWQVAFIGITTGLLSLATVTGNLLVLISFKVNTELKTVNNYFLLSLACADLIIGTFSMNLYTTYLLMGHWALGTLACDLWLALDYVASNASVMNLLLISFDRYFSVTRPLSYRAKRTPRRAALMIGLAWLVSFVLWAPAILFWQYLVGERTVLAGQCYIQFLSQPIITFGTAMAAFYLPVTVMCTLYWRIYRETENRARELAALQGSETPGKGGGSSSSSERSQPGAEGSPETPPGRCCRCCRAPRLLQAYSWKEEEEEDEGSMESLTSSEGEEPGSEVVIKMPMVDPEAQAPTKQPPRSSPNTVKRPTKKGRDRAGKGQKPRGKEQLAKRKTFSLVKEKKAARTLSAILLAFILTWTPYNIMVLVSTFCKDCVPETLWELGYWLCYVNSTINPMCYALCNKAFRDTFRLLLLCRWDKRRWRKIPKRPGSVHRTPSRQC
Procedure: as §1

human 5-HT2A receptor [9] = target: T2, human 5-HT2A receptor; test: Radioligand binding assay at human 5-HT2A receptor
Procedure: as §1

human H1 receptor = target: T6, human H1 receptor (Homo sapiens, UniProt P35367); test: Radioligand binding assay at human H1 receptor; conditions: mean ± SEM, two independent experiments in duplicate; read-out: pKi hH1 (converted)
T6 construct: expressed in transfected cells
T6 sequence (P35367 whole entry): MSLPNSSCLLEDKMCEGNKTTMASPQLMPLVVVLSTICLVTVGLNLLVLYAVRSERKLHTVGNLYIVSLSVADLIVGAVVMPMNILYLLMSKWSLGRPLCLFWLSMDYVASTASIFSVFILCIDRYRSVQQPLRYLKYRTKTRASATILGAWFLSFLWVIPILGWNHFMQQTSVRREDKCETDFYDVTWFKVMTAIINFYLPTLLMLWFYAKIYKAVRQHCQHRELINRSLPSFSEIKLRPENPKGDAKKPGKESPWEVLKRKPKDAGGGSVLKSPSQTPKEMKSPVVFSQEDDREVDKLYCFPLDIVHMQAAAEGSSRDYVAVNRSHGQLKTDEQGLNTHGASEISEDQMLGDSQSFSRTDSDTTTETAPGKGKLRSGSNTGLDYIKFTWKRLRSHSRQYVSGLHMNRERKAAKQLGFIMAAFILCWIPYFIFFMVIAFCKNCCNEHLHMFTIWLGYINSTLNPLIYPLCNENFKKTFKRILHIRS
Procedure: as §1

human 5-HT2A receptor [10] = target: T2, human 5-HT2A receptor; conditions: atypical antipsychotics, literature values, no reference given; cited from earlier work

O=C(Nc1ccccc1O)C1CCN(CCCn2c(=O)[nH]c3ccccc32)CC1 [D2AAK4, N-(2-hydroxyphenyl)-1-[3-(2-oxo-2,3-dihydro-1H-benzimidazol-1-yl)propyl]piperidine-4-carboxamide]
% of the time spent in the open arms (mice [1]; p < 0.0001): decrease
% of the open arm entries (mice [1]; p = 0.0272 and p = 0.0092): decrease
Ki (human D3 receptor): 9.33 µM
inhibition at 10 µM (human 5-HT1A receptor): 9.7 ± 0.4%
motor coordination in rotarod and chimney tests (mice [2]): does not impair mouse motor coordination
agonist efficacy at 5-HT2A (IP signaling) (human 5-HT2A receptor [3]; 0.1 nM to 100 µM): unable to promote IP signaling
inhibition at 10 µM (human 5-HT2A receptor [3]; CHO-K1, read-out: % inh. at 10 µM (inhibition of 5-HT response), h5-HT2A, 10 µM compound versus 1 µM 5-HT, IP assay): 97.4 ± 1.6%
IC50 (human 5-HT2A receptor [3]; versus 1 µM 5-HT-stimulated IP production, read-out: IC50, 5-HT2A antagonist): 0.714 µM
Ki (human 5-HT7(a) receptor): 6.61 µM
latency index (IL) values, memory consolidation (mice [4]): statistically significant increase
amphetamine-induced hyperactivity (mice [5]): decreased amphetamine-induced hyperactivity
Ki (human D2S receptor [6]): 1.86 µM
Ki (human D1 receptor): 2.51 µM
% inh. at 100 µM (inhibition of dopamine response), hD2 (human D2S receptor [7]; 100 µM compound (maximal assayed) versus 10 µM dopamine, cAMP assay): 44%
inhibition at 100 µM (human D2S receptor [7]; CHO-K1, read-out: % inh. at 100 µM (inhibition of dopamine response), hD2, 100 µM compound (maximal assayed) versus 10 µM dopamine, cAMP assay): 44.1 ± 1.5%
% inh. at 10 µM (inhibition of dopamine response), hD2 (human D2S receptor [8]): 12.1 ± 6.0% and 12%
Ki (human M1 receptor): 3.89 µM
5-HT2A/D2 affinity ratio (Ki D2/Ki 5-HT2A), times higher affinity for 5-HT2A (human 5-HT2A receptor [9]; 5-HT2A versus D2 receptor): 3.67 times
Ki (human 5-HT2A receptor [9]; mean ± SEM, three independent experiments in duplicate, read-out: pKi h5-HT2A (converted)): 0.49 µM
Ki (human H1 receptor): 3.89 µM

Cc1nc2n(c(=O)c1CCN1CCC(c3noc4cc(F)ccc34)CC1)CCCC2O (stereo not shown) [paliperidone]
5-HT2A/D2 affinity ratio (human 5-HT2A receptor [10]): 2.16

O=C1Cc2cc(CCN3CCN(c4nsc5ccccc45)CC3)c(Cl)cc2N1 [ziprasidone]
5-HT2A/D2 affinity ratio (human 5-HT2A receptor [10]): ~ 5.60
